Source: patent US10730878B2, “Fused quinoline compounds as PI3K/mTOR inhibitors” (ADVENCHEN PHARMACEUTICALS, LLC, priority 2015, dated 2020)

Tests used:
[1] = tested on: pi3K; test: pi3K kinase inhibition, % activity at 0.03 μM (kinases panel screening); type: biochemical; details: 0.03 μM compound
Excerpt: (§1) In vitro kinase inhibition activities included Pi3k and mTor activities can be tested with Millipore/Merck KGA of Europe in their kinases panel screening. Animal antitumor activity testing can be conducted by various cancer xenograft models for a compound of formula I. […]

[2] = biological target: T1, mTor (Homo sapiens, UniProt P42345); test: mTor kinase inhibition, % activity at 0.03 μM (kinases panel screening); type: biochemical; details: 0.03 μM compound
T1 construct: purchased Millipore/Merck KGA of Europe (panel screening service)
Excerpt: as §1

[3] = tested on: tumor cell lines; test: inhibition on tumor cell lines (drawing 11); type: cell-based; set-up: tumor cell line inhibition, first column under head drawing 11 / tumor cell line inhibition, third column under head drawing 11: unit not given here; details: head is a drawing, cell line and unit not readable
Protocol: The following compounds or a pharmaceutically acceptable salt thereof, but not limited, can also be prepared similarly according to the methods described in Scheme I-Scheme II. They are also tested for the inhibitions on mTor or pi3k kinases, or tumor cell lines.

Molecule	pi3K % activity @0.03 μM [1] [%]	mTor % activity @0.03 μM [2] [%]	tumor cell line inhibition, first column under head drawing 11 ([3]; first of three columns)	tumor cell line inhibition, second column under head drawing 11 ([3]; second of three columns)	tumor cell line inhibition, third column under head drawing 11 ([3]; third of three columns)
N-(5-{16-[4-(1-cyano-1-methylethyl)phenyl]-8,11,13,14,16-pentaazatetracyclo[8.6.0.0^2,^7.0^11,^1^5]-hexadeca-1(10), 2,4,6,8,12,14-heptaen-4-yl)}pyridin-2-yl)-2-(cyclohexylamino)acetamide	79	3	–	–	–
CC(C)(C#N)c1ccc(-n2c3c4cc(-c5cnc(N)cc5C(F)(F)F)ccc4ncc3n3cnnc23)cc1 [2-(4-{4-[6-amino-4-(trifluoromethyl)pyridin-3-yl]-8,11,13,14,16-pentaazatetracyclo-[8.6.0.0^2,^7.0^11,^1^5]hexadec-1(10),2,4,6,8,12,14-heptaen-16-yl}phenyl)-2-methylpropanenitrile]	65	87	–	–	–
CCc1nnc2n(-c3ccc(C(C)(C)C)cc3)c3c4cc(-c5cccnc5)ccc4ncc3n12 [3-pyridine; CH2CH3; CH3, CH3; CH3, 16-(4-tert-butylphenyl)-12-ethyl-4-(pyridin-3-yl)-8,11,13,14,16-pentaazatetracyclo-[8.6.0.0^2,^7.0^11,^1^5]hexadec-1(10),2,4,6,8,12,14-heptaene]	79	40	–	–	–
N-(5-{16-[4-(1-cyano-1-methylethyl)phenyl]-8,11,13,14,16-pentaazatetracyclo[8.6.0.0^2,^7.0^11,^1^5]-hexadeca-1(10),2,4,6,8,12,14-heptaen-4-yl}pyridin-2-yl)-2-(cyclopentylamino)acetamide	71	−2	–	–	–
N-(5-{16-[4-(1-cyano-1-methylethyl)phenyl]-8,11,13,14,16-pentaazatetracyclo[8.6.0.0^2,^7.0^11,^1^5]-hexadeca-1(10), 2,4,6,8,12,14-heptaen-4-yl)}pyridin-2-yl)-2-(methylamino)acetamide	39	0	–	–	–
Cc1nnc2n(-c3ccc(C(C)(C)C)cc3)c3c4cc(-c5cnc(N)cc5C(F)(F)F)ccc4ncc3n12 [5-[16-(4-tert-butylphenyl)-12-methyl-8,11,13,14,16-pentaazatetracyclo[8.6.0.0^2,^7.0^11,^1^5]hexa-deca-1(10), 2,4,6,8,12,14-heptaen-4-yl]-4-(trifluoromethyl)pyridin-2-amine]	50	94	–	–	–
N-(5-{16-[4-(1-cyano-1-methylethyl)phenyl]-8,11,13,14,16-pentaazatetracyclo[8.6.0.0^2,^7.0^11,^1^5]-hexadeca-1(10), 2,4,6,8,12,14-heptaen-4-yl)}pyridin-2-yl)-2-(oxan-4-ylamino)acetamide	68	−1	–	–	–
CC(C)(C)c1ccc(-n2c3c4cc(-c5cnc(N)cc5C(F)(F)F)ccc4ncc3n3cnnc23)cc1 [5-[16-(4-tert-butylphenyl)-8,11,13,14,16-pentaazatetracyclo[8.6.0.0^2,^7.0^11,^1^5]hexadeca-1(10),2,4,6,8,12,14-heptaen-4-yl]-4-(trifluoromethyl)pyridin-2-amine]	30	83	–	–	–
Cc1nnc2n(-c3ccc(C(C)(C)C#N)cc3)c3c4cc(-c5cccnc5)ccc4ncc3n12 [3-pyridine; CH3; CH3, CH3; CN, 2-methyl-2-{4-[12-methyl-4-(pyridin-3-yl)-8,11,13,14,16-pentaazatetracyclo-[8.6.0.0^2,^7.0^11,^1^5]-hexadeca-1(10),2,4,6,8,12,14-heptaen-16-yl]phenyl}propanenitrile]	–	80	0.7	2.6	22

Further lines, with some results ahead:

pi3K % activity @0.03 μM [1] [%]	mTor % activity @0.03 μM [2] [%]	Molecule	tumor cell line inhibition, first column under head drawing 11 ([3]; first of three columns)	tumor cell line inhibition, second column under head drawing 11 ([3]; second of three columns)	tumor cell line inhibition, third column under head drawing 11 ([3]; third of three columns)
88	27	N-{5-[16-(4-tert-butylphenyl)-8,11,13,14,16-pentaazatetracyclo[8.6.0.0^2,^7.0^11,^1^5]hexadeca-1(10),2,4,6,8,12,14-heptaen-4-yl]pyridin-2-yl}-2-(pyrrolidin-1-yl)acetamide	–	–	–
−16	45	CC(C)(C#N)c1ccc(-n2c3c4cc(-c5ccc(N)nc5)ccc4ncc3n3cnnc23)cc1 [5-pyridin-2-amine; H; CH3, CH3; CN, 2-{4-[4-(6-aminopyridin-3-yl)-8,11,13,14,16-pentaazatetracyclo[8.6.0.0^2,^7.0^11,^1^5]hexadeca-1(10),2,4,6,8,12,14-heptaen-16-yl]phenyl}-2-methylpropanenitrile]	–	–	–
40	20	CCc1nnc2n(-c3ccc(C(C)(C)C)cc3)c3c4cc(-c5ccc(N)nc5)ccc4ncc3n12 [5-pyridin-2-amine; CH2CH3; CH3, CH3; CH3, 5-[16-(4-tert-butylphenyl)-12-ethyl-8,11,13,14,16-pentaazatetracyclo[8.6.0.0^2,^7.0^11,^1^5]hexadeca-1(10),2,4,6,8,12,14-heptaen-4-yl]pyridin-2-amine]	–	–	–
93	72	5-[16-(4-tert-butylphenyl)-12-ethyl-8,11,13,14,16-pentaazatetracyclo[8.6.0.0^2,^7.0^11,^1^5]hexadeca-1(10),2,4,6,8,12,14-heptaen-4-yl]-N-(2-methoxyethyl)pyridin-2-amine	–	–	–
−19	–	CC(C)(C)c1ccc(-n2c3c4cc(-c5ccc(N)nc5)ccc4ncc3n3cnnc23)cc1 [5-pyridin-2-amine; H; CH3, CH3; CH3, 5-[16-(4-tert-butylphenyl)-8,11,13,14,16-pentaazatetracyclo[8.6.0.0^2,^7.0^11,^1^5]hexadeca-1(10),2,4,6,8,12,14-heptaen-4-yl]pyridin-2-amine]	–	–	–
